Data set [1] concerns lactic acid bacteria (LAB). In words: In vitro RGE fermentation with LAB. As to conditions: 7 days incubation.
Data set [2] in a line: Plasma protein binding by rapid equilibrium dialysis. It is filed as in vitro ADME. The conditions noted are these: 4 h at 37 °C. The procedure:
Briefly, 100 μL of mouse plasma containing 1 μM of each ginsenoside was added to the semipermeable membrane’s inner sample chamber (molecular weight cut-off 8000 Da), and 300 μL of PBS was added to the outer buffer chamber. The samples were then incubated for 4 h at 37 °C on a shaking incubator at 300 rpm, followed by collecting 30-μL aliquots from both the sample and buffer chambers.
Subsequent protocols were identical to the method described above except for the use of ice-cold IS solution (200 μL; 0.05 ng/mL berberine in acetonitrile) to 30 μL of the reaction samples.
Plasma protein binding was calculated using the following equation [31, 60]: Plasma protein binding=(1−Drug concentration in buffer chamber/Drug concentration in plasma sample chamber)×100(%).

The nature of data set [3]: Recovery of ginsenosides from urine and feces for 48 h after RGE, amoxicillin with or without LAB. The conditions noted are these: feces 48 h after single oral RGE 2 g/kg; Amoxicillin + LAB vs amoxicillin.
Method: Mice received amoxicillin (n = 12, 20 mg/kg, dissolved in water at 2 mL/kg, twice daily) for 3 days via oral gavage. From the 4th day, mice from the LAB + amoxicillin treatment group received LAB (2 g/kg suspended in water at 2 mL/kg, once daily) for 7 days via oral gavage. Mice from the amoxicillin treatment group received water (2 mL/kg, once daily) for 7 days via oral gavage.
Data set [4] is described as follows: Pharmacokinetics of ginsenosides after single oral RGE with or without amoxicillin treatment. It is filed as in vivo, mice. As to conditions: mouse, in vivo, po, 2 g/kg. The procedure: Male ICR mice (7-weeks-year-old, 30–35 g) were purchased from Samtako Co. (Osan, Kyunggi-do, Korea). Animals were acclimatized for 1 week in an animal facility at Kyungpook National University. Food and water were available ad libitum.
Before blood sampling, mice were anesthetized using isoflurane (isoflurane vaporizer to 2% with oxygen flow at 0.8 L/min) for 5 min.

Data set [5] can be described thus: Recovery of ginsenosides from urine and feces for 48 h after RGE, amoxicillin vs control. As to conditions: feces 48 h after single oral RGE 2 g/kg; vs control.
Method: Aliquots (200 μL) of an IS (0.05 ng/mL berberine in methanol) were added to 30 μL of plasma or urine samples. Aliquots (600 μL) of an IS methanol solution containing 0.05 ng/mL berberine were added to 100 μL of 10% feces homogenate samples. […] After centrifugation, 200 μL of the supernatant was transferred to a clean tube and dried under a nitrogen stream at 40 °C. The residue was reconstituted using 100 μL of 70% methanol supplemented with 0.1% formic acid, and a 10-μL aliquot was injected into the LC–MS/MS system.
The subject of the next data set is Caco-2 cell monolayers. The conditions noted are these: Caco-2, pH 7.4.
In another data set the test system is Caco-2 cells. As to conditions: cited from earlier work.
The conditions of data set [6]: cited from earlier work.
The nature of data set [7]: Caco-2 permeability (apical to basal). The conditions noted are these: human, Caco-2, pH 7.4.
Method: (§1) The culture medium was replaced every other day. On the day of the experiment, the growth medium was discarded, and the attached cells were washed with prewarmed HBSS (pH 7.4) and preincubated with HBSS for 20 min at 37 °C, and the permeability assay was conducted as previously described [53]. Briefly, to measure the apical to basal permeability of each ginsenoside, 0.5 mL of HBSS containing 50 µM of individual ginsenoside (GRb1, GRb2, GRc, GRd, GRe, GRf, GRg1, GRg3, GRh1, GRh2, GF1, GF2, CK, PPD, or PPT) was added to the apical side (inside of the insert) and 1.5 mL of fresh HBSS was added to the basal side of the insert. […] Aliquots (0.1 mL) in basal side were transferred to clean tubes and stored at −80 °C until further analysis. Transport study was performed for 1 h based on the linearity of the cumulative transport amounts of ginsenosides against the transport time. The integrity of cell monolayers was evaluated before and after the permeability experiments by measuring the transepithelial electrical resistance (TEER) values using an epithelial volt/ohm meter (World Precision Instruments; Sarasota, FL, USA). […]
(§2) For the permeability calculation, the transport rate of ginsenosides and marker conpounds was calculated from the slope of the regression line from the mean permeated amounts vs. incubation time plot.

Method for Caco-2 cell monolayers: as §1, §2

Turning to `CC(C)=CCC[C@](C)(O)[C@H]1CC[C@]2(C)[C@@H]1[C@H](O)C[C@@H]1[C@@]3(C)CC[C@H](O)C(C)(C)[C@@H]3[C@@H](O)C[C@]12C` [PPT, 20(S)-protopanaxatriol], the “Alteration of ginsenoside by fermentation of RGE with LAB” value in [1] is “significantly increased”. Moreover, in data set [2] (1 μM, mouse plasma), the Plasma protein binding result is “over 99%”. Moreover, the “Fecal recovery, change by LAB treatment” value in data set [3] is reported as “significantly increased”. In [4], this compound displayed a Half-Life of 20.4 ± 2.3 h and a mean residence time (MRT) of 20.2 ± 2.2 h. The “Fecal recovery, change by the amoxicillin treatment” value in data set [5] was “significantly decreased”. In addition, the “Papp,AB” value in the data set with Caco-2 cell monolayers is recorded as 3.72 ± 0.56 × 10^−6 cm/s.

`CC(C)NCC(O)COc1cccc2ccccc12` (centres unmarked) [propranolol]: the “Papp,AB reference values” in the data set on Caco-2 cells is recorded as 18.8–33.1 × 10^−6 cm/s. In addition, the fraction unbound at 4 h, 1 μM in data set [2] (pooled mouse plasma) was 0.103. Moreover, in data set [6], the “Plasma protein binding reference values” was 87–96%. The same compound gave a Papp A→B at 1 h in data set [7] of 216 ± 23.5 nm/s.
